# Test results: PubChem BioAssay (NCI)
#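 Five compound concentrations were applied to cells in 96-well plates for 48 hours; endpoints were derived by simple linear interpolation of the resulting dose-response curve. TGI marks complete inhibition of growth.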
# Columns and labels:
# Experiment in all cases: DTP human tumour cell line panel, 48 h
# 786-0 renal = test system: 786-0 renal
# A498 renal = test system: A498 renal
# A549 NSCLC = test system: A549 NSCLC
# ACHN renal = test system: ACHN renal
# CAKI-1 renal = test system: CAKI-1 renal
# CCRF-CEM leukemia = test system: CCRF-CEM leukemia
# COLO 205 colon = test system: COLO 205 colon
# DLD-1 colon = test system: DLD-1 colon
# DMS 114 small cell lung = test system: DMS 114 small cell lung
# DMS 273 small cell lung = test system: DMS 273 small cell lung
# EKVX NSCLC = test system: EKVX NSCLC
# HCC-2998 colon = test system: HCC-2998 colon
# HCT-116 colon = test system: HCT-116 colon
# HCT-15 colon = test system: HCT-15 colon
# HL-60(TB) leukemia = test system: HL-60(TB) leukemia
# HOP-18 NSCLC = test system: HOP-18 NSCLC
# HOP-62 NSCLC = test system: HOP-62 NSCLC
# HOP-92 NSCLC = test system: HOP-92 NSCLC
# HT29 colon = test system: HT29 colon
# IGROV1 ovarian = test system: IGROV1 ovarian
# K-562 leukemia = test system: K-562 leukemia
# KM12 colon = test system: KM12 colon
# KM20L2 colon = test system: KM20L2 colon
# LOX IMVI melanoma = test system: LOX IMVI melanoma
# LXFL 529 NSCLC = test system: LXFL 529 NSCLC
# M14 melanoma = test system: M14 melanoma
# M19-MEL melanoma = test system: M19-MEL melanoma
# MALME-3M melanoma = test system: MALME-3M melanoma
# MOLT-4 leukemia = test system: MOLT-4 leukemia
# NCI-H226 lung = test system: NCI-H226 lung
# NCI-H23 lung = test system: NCI-H23 lung
# NCI-H460 lung = test system: NCI-H460 lung
# NCI-H522 lung = test system: NCI-H522 lung
# OVCAR-3 ovarian = test system: OVCAR-3 ovarian
# OVCAR-4 ovarian = test system: OVCAR-4 ovarian
# OVCAR-5 ovarian = test system: OVCAR-5 ovarian
# OVCAR-8 ovarian = test system: OVCAR-8 ovarian
# RPMI-8226 leukemia = test system: RPMI-8226 leukemia
# RXF 393 renal = test system: RXF 393 renal
# SF-268 CNS = test system: SF-268 CNS
# SF-295 CNS = test system: SF-295 CNS
# SF-539 CNS = test system: SF-539 CNS
# SK-MEL-2 melanoma = test system: SK-MEL-2 melanoma
# SK-MEL-28 melanoma = test system: SK-MEL-28 melanoma
# SK-MEL-5 melanoma = test system: SK-MEL-5 melanoma
# SK-OV-3 ovarian = test system: SK-OV-3 ovarian
# SN12C renal = test system: SN12C renal
# SNB-19 CNS = test system: SNB-19 CNS
# SNB-75 CNS = test system: SNB-75 CNS
# SNB-78 CNS = test system: SNB-78 CNS
# SR leukemia = test system: SR leukemia
# TK-10 renal = test system: TK-10 renal
# U251 CNS = test system: U251 CNS
# UACC-257 melanoma = test system: UACC-257 melanoma
# UACC-62 melanoma = test system: UACC-62 melanoma
# UO-31 renal = test system: UO-31 renal
# XF 498 CNS = test system: XF 498 CNS
# SW-620 colon = test system: SW-620 colon
smiles,measurement,setting,value
CC#CC(OCC)(OCC)OCC,TGI,786-0 renal,> 100 µM
same,TGI,A498 renal,> 100 µM
same,TGI,A549 NSCLC,> 100 µM
same,TGI,ACHN renal,> 100 µM
same,TGI,CAKI-1 renal,> 100 µM
same,TGI,CCRF-CEM leukemia,> 100 µM
same,TGI,COLO 205 colon,> 100 µM
same,TGI,DLD-1 colon,> 100 µM
same,TGI,DMS 114 small cell lung,74.3 µM
same,TGI,DMS 273 small cell lung,49.1 µM
same,TGI,EKVX NSCLC,> 100 µM
same,TGI,HCC-2998 colon,> 100 µM
same,TGI,HCT-116 colon,> 100 µM
same,TGI,HCT-15 colon,> 100 µM
same,TGI,HL-60(TB) leukemia,> 100 µM
same,TGI,HOP-18 NSCLC,> 100 µM
same,TGI,HOP-62 NSCLC,> 100 µM
same,TGI,HOP-92 NSCLC,> 100 µM
same,TGI,HT29 colon,> 100 µM
same,TGI,IGROV1 ovarian,> 100 µM
same,TGI,K-562 leukemia,> 100 µM
same,TGI,KM12 colon,> 100 µM
same,TGI,KM20L2 colon,> 100 µM
same,TGI,LOX IMVI melanoma,39.9 µM
same,TGI,LXFL 529 NSCLC,> 100 µM
same,TGI,M14 melanoma,> 100 µM
same,TGI,M19-MEL melanoma,> 100 µM
same,TGI,MALME-3M melanoma,> 100 µM
same,TGI,MOLT-4 leukemia,> 100 µM
same,TGI,NCI-H226 lung,> 100 µM
same,TGI,NCI-H23 lung,> 100 µM
same,TGI,NCI-H460 lung,> 100 µM
same,TGI,NCI-H522 lung,> 100 µM
same,TGI,OVCAR-3 ovarian,> 100 µM
same,TGI,OVCAR-4 ovarian,> 100 µM
same,TGI,OVCAR-5 ovarian,> 100 µM
same,TGI,OVCAR-8 ovarian,> 100 µM
same,TGI,RPMI-8226 leukemia,> 100 µM
same,TGI,RXF 393 renal,> 100 µM
same,TGI,SF-268 CNS,> 100 µM
same,TGI,SF-295 CNS,> 100 µM
same,TGI,SF-539 CNS,> 100 µM
same,TGI,SK-MEL-2 melanoma,> 100 µM
same,TGI,SK-MEL-28 melanoma,> 100 µM
same,TGI,SK-MEL-5 melanoma,> 100 µM
same,TGI,SK-OV-3 ovarian,> 100 µM
same,TGI,SN12C renal,> 100 µM
same,TGI,SNB-19 CNS,> 100 µM
same,TGI,SNB-75 CNS,> 100 µM
same,TGI,SNB-78 CNS,> 100 µM
same,TGI,SR leukemia,> 100 µM
same,TGI,TK-10 renal,> 100 µM
same,TGI,U251 CNS,> 100 µM
same,TGI,UACC-257 melanoma,> 100 µM
same,TGI,UACC-62 melanoma,> 100 µM
same,TGI,UO-31 renal,> 100 µM
same,TGI,XF 498 CNS,> 100 µM
C=C(Nc1ccc(OC)cc1OC)C(=O)Cc1cccc[n+]1[O-],TGI,786-0 renal,> 100 µM
same,TGI,A498 renal,> 100 µM
same,TGI,A549 NSCLC,> 100 µM
same,TGI,ACHN renal,> 100 µM
same,TGI,CAKI-1 renal,> 100 µM
same,TGI,CCRF-CEM leukemia,> 100 µM
same,TGI,COLO 205 colon,> 100 µM
same,TGI,DLD-1 colon,> 100 µM
same,TGI,DMS 114 small cell lung,> 100 µM
same,TGI,DMS 273 small cell lung,> 100 µM
same,TGI,EKVX NSCLC,> 100 µM
same,TGI,HCC-2998 colon,> 100 µM
same,TGI,HCT-116 colon,> 100 µM
same,TGI,HCT-15 colon,> 100 µM
same,TGI,HL-60(TB) leukemia,> 100 µM
same,TGI,HOP-18 NSCLC,> 100 µM
same,TGI,HOP-62 NSCLC,> 100 µM
same,TGI,HOP-92 NSCLC,> 100 µM
same,TGI,HT29 colon,> 100 µM
same,TGI,IGROV1 ovarian,> 100 µM
same,TGI,K-562 leukemia,> 100 µM
same,TGI,KM12 colon,> 100 µM
same,TGI,KM20L2 colon,> 100 µM
same,TGI,LOX IMVI melanoma,> 100 µM
same,TGI,LXFL 529 NSCLC,> 100 µM
same,TGI,M14 melanoma,> 100 µM
same,TGI,M19-MEL melanoma,> 100 µM
same,TGI,MALME-3M melanoma,> 100 µM
same,TGI,MOLT-4 leukemia,> 100 µM
same,TGI,NCI-H226 lung,> 100 µM
same,TGI,NCI-H23 lung,> 100 µM
same,TGI,NCI-H460 lung,> 100 µM
same,TGI,NCI-H522 lung,> 100 µM
same,TGI,OVCAR-3 ovarian,> 100 µM
same,TGI,OVCAR-4 ovarian,> 100 µM
same,TGI,OVCAR-5 ovarian,> 100 µM
same,TGI,OVCAR-8 ovarian,> 100 µM
same,TGI,RPMI-8226 leukemia,> 100 µM
same,TGI,RXF 393 renal,> 100 µM
same,TGI,SF-268 CNS,> 100 µM
same,TGI,SF-295 CNS,> 100 µM
same,TGI,SF-539 CNS,> 100 µM
same,TGI,SK-MEL-2 melanoma,> 100 µM
same,TGI,SK-MEL-28 melanoma,> 100 µM
same,TGI,SK-MEL-5 melanoma,> 100 µM
same,TGI,SK-OV-3 ovarian,> 100 µM
same,TGI,SN12C renal,> 100 µM
same,TGI,SNB-19 CNS,> 100 µM
same,TGI,SNB-75 CNS,> 100 µM
same,TGI,SNB-78 CNS,> 100 µM
same,TGI,SR leukemia,> 100 µM
same,TGI,SW-620 colon,> 100 µM
same,TGI,TK-10 renal,> 100 µM
same,TGI,U251 CNS,> 100 µM
same,TGI,UACC-257 melanoma,> 100 µM
same,TGI,UACC-62 melanoma,> 100 µM
same,TGI,UO-31 renal,> 100 µM
same,TGI,XF 498 CNS,> 100 µM
Cn1c(=O)c2c3ccccc3c(C(=O)c3ccccc3)n2c2ccccc21,TGI,786-0 renal,> 100 µM
same,TGI,A498 renal,> 100 µM
same,TGI,A549 NSCLC,> 100 µM
same,TGI,ACHN renal,> 100 µM
same,TGI,CAKI-1 renal,> 100 µM
same,TGI,CCRF-CEM leukemia,> 31.6 µM
same,TGI,COLO 205 colon,> 100 µM
same,TGI,DLD-1 colon,> 100 µM
same,TGI,DMS 114 small cell lung,> 100 µM
same,TGI,DMS 273 small cell lung,> 100 µM
same,TGI,EKVX NSCLC,> 100 µM
same,TGI,HCC-2998 colon,> 100 µM
same,TGI,HCT-116 colon,> 100 µM
same,TGI,HCT-15 colon,> 100 µM
same,TGI,HL-60(TB) leukemia,> 100 µM
same,TGI,HOP-18 NSCLC,> 100 µM
same,TGI,HOP-62 NSCLC,> 100 µM
same,TGI,HOP-92 NSCLC,> 84.2 µM
same,TGI,HT29 colon,> 100 µM
same,TGI,IGROV1 ovarian,> 100 µM
same,TGI,K-562 leukemia,> 100 µM
same,TGI,KM12 colon,> 100 µM
same,TGI,KM20L2 colon,> 100 µM
same,TGI,LOX IMVI melanoma,> 100 µM
same,TGI,LXFL 529 NSCLC,> 100 µM
same,TGI,M14 melanoma,> 100 µM
same,TGI,M19-MEL melanoma,> 100 µM
same,TGI,MALME-3M melanoma,> 100 µM
same,TGI,MOLT-4 leukemia,> 100 µM
same,TGI,NCI-H226 lung,> 100 µM
same,TGI,NCI-H23 lung,> 100 µM
same,TGI,NCI-H460 lung,> 100 µM
same,TGI,NCI-H522 lung,> 100 µM
same,TGI,OVCAR-3 ovarian,> 100 µM
same,TGI,OVCAR-4 ovarian,> 100 µM
same,TGI,OVCAR-5 ovarian,> 100 µM
same,TGI,OVCAR-8 ovarian,> 100 µM
same,TGI,RPMI-8226 leukemia,> 100 µM
same,TGI,RXF 393 renal,> 100 µM
same,TGI,SF-268 CNS,> 100 µM
same,TGI,SF-295 CNS,> 100 µM
same,TGI,SF-539 CNS,> 100 µM
same,TGI,SK-MEL-2 melanoma,> 100 µM
same,TGI,SK-MEL-28 melanoma,> 100 µM
same,TGI,SK-MEL-5 melanoma,> 100 µM
same,TGI,SK-OV-3 ovarian,> 100 µM
same,TGI,SN12C renal,> 100 µM
same,TGI,SNB-19 CNS,> 100 µM
same,TGI,SNB-75 CNS,15 µM
same,TGI,SNB-78 CNS,> 100 µM
same,TGI,SR leukemia,> 100 µM
same,TGI,SW-620 colon,> 100 µM
same,TGI,TK-10 renal,> 96.6 µM
same,TGI,U251 CNS,> 100 µM
same,TGI,UACC-257 melanoma,> 100 µM
same,TGI,UACC-62 melanoma,> 30.1 µM
same,TGI,UO-31 renal,> 100 µM
same,TGI,XF 498 CNS,> 100 µM
